US8906115B2, “Method for the antimicrobial finishing of textiles and fibers” (Sanitized AG, priority 2006, dated 2014)

System: Staphylococcus aureus 6538 P
Experiment: antibacterial effect / germ reduction of finished textiles after washing, test standard not stated
Type: cell-based
Settings: less pronounced than tannic acid, gallic acid, stearic acid or L-phenylalanine
Experimental: The two samples finished in this way are washed at 40° C. and dried between the washing cycles. After 20 and 30 washing cycles, the antibacterial effect against Staphylococcus aureus 6538 P is tested.
In an experimental finishing. 14 kilograms of an orange colored tricot made of polyester/polyamide/elastan are prewashed at 60° C., then 280 grams of L-phenylalanine and 110 liters of water are added. Allow to prerun for 10 minutes, heated to 60° C. at 3° C. per minute and left to run for 15 minutes at 60° C. 80 grams of Sanitized T 99-19 in 2 liters of water are added and left to run for a further 30 minutes at 60° C. The liquor is cooled to 35° C. and then drawn off. 40 liters of water for rinsing are added, left to run for two minutes and the rinse water is drawn off. The textile is discharged via press-off rolls and dried on a tenter at 120° C. After 50 washing cycles in accordance with EN ISO 6330 (6A), washed with the colorfast detergent according to ECE 77, a sample achieves a germ count reduction of factor 100 (log reduction=2.0) compared with the inoculum.

| SMILES | antimicrobial effect after washing when used as primer (P), in words |
| --- | --- |
| CCCCCCCCCCCCCCCCCCN [octadecylamine] | improvement in the antimicrobial effect after washing |
| O=C(O)c1ccc(C(=O)O)cc1 [terephthalic acid, benzene-1,4-dicarboxyolic acid] | improvement in the antimicrobial effect after washing |
